Several values for one entry are separate records, joined by “and”; a condition that tells them apart may be missing. Equal entries are not always repeated. Toxic doses and inconclusive results are not listed.
Tested on: P388 leukemia ip, CD2F1 mice, survival T/C
Experiment: NCI In Vivo Anticancer Drug Screen. Data for tumor model P388 Leukemia (intraperitoneal) in CD2F1 (CDF1) mice
Conditions: endpoint: median survival time, higher = longer survival
Procedure, shortened: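 Mice carrying the transplanted tumor received test compound or vehicle. Survival was recorded in each group, and the value is the treated-group measurement divided by that of the vehicle-treated control group.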

O=NN(CCCl)C(=O)NCCCl
T/C (dose: 1.0 mg/kg/injection, schedule: Q01DX001 (ip), vehicle: Klucel (hydroxypropylcellulose) (HPC)): 122 % of control
T/C (dose: 1.0 mg/kg/injection, schedule: Q01DX001 (ip), vehicle: saline with Tween-80): 115 % of control
T/C (dose: 1.0 mg/kg/injection, schedule: Q01DX001 (ip), vehicle: suspension in saline): 107 % of control
T/C (dose: 1.0 mg/kg/injection, schedule: Q01DX005 (ip), vehicle: saline + alcohol): 112 % of control
T/C (dose: 2.0 mg/kg/injection, schedule: Q01DX001 (ip), vehicle: Klucel (hydroxypropylcellulose) (HPC)): 112 % of control
T/C (dose: 2.0 mg/kg/injection, schedule: Q01DX001 (ip), vehicle: saline with Tween-80): 107 % of control
T/C (dose: 2.0 mg/kg/injection, schedule: Q01DX001 (ip), vehicle: suspension in saline): 117 % of control
T/C (dose: 2.0 mg/kg/injection, schedule: Q01DX009 (ip), vehicle: other): 163 % of control and 175 % of control
T/C (dose: 2.0 mg/kg/injection, schedule: Q01DX009 (ip), vehicle: saline with Tween-80): 173 % of control
T/C (dose: 2.5 mg/kg/injection, schedule: Q04DX003 (iv), vehicle: saline + alcohol): 152 % of control
T/C (dose: 3.24 mg/kg/injection, schedule: Q04DX003 (ip), vehicle: saline + alcohol): 208 % of control
T/C (dose: 3.3 mg/kg/injection, schedule: Q01DX005 (ip), vehicle: Klucel (hydroxypropylcellulose) (HPC)): 267 % of control
T/C (dose: 3.3 mg/kg/injection, schedule: Q01DX005 (ip), vehicle: saline + alcohol): 250 % of control and 265 % of control
T/C (dose: 3.3 mg/kg/injection, schedule: Q01DX009 (ip), vehicle: saline + alcohol): 183 % of control
T/C (dose: 3.75 mg/kg/injection, schedule: Q04DX003 (ip), vehicle: saline): 176 % of control
T/C (dose: 3.89 mg/kg/injection, schedule: Q04DX003 (ip), vehicle: saline + alcohol): 178 % of control
T/C (dose: 4.0 mg/kg/injection, schedule: Q01DX001 (ip), vehicle: saline + alcohol): 123 % of control
T/C (dose: 4.0 mg/kg/injection, schedule: Q01DX005 (ip), vehicle: saline + alcohol): 170 % of control
T/C (dose: 4.0 mg/kg/injection, schedule: Q01DX009 (ip), vehicle: other): 215 % of control and 287 % of control
T/C (dose: 4.0 mg/kg/injection, schedule: Q01DX009 (ip), vehicle: saline with Tween-80): 262 % of control
T/C (dose: 4.4 mg/kg/injection, schedule: Q01DX005 (ip), vehicle: saline + alcohol): 222 % of control
T/C (dose: 5.0 mg/kg/injection, schedule: Q04DX003 (ip), vehicle: saline + alcohol): 206 % of control
T/C (dose: 5.0 mg/kg/injection, schedule: Q04DX003 (iv), vehicle: saline + alcohol): 177 % of control
T/C (dose: 5.4 mg/kg/injection, schedule: Q04DX003 (ip), vehicle: saline + alcohol): 185 % of control
T/C (dose: 6.48 mg/kg/injection, schedule: Q04DX002 (ip), vehicle: saline + alcohol): 163 % of control and 169 % of control
T/C (dose: 6.48 mg/kg/injection, schedule: Q04DX003 (ip), vehicle: saline + alcohol): 219 % of control
T/C (dose: 6.6 mg/kg/injection, schedule: Q01DX005 (ip), vehicle: saline + alcohol): 305 % of control
T/C (dose: 7.5 mg/kg/injection, schedule: Q01DX001 (iv), vehicle: saline + alcohol): 164 % of control
T/C (dose: 7.5 mg/kg/injection, schedule: Q04DX003 (ip), vehicle: saline): 219 % of control
T/C (dose: 8.0 mg/kg/injection, schedule: Q01DX001 (ip), vehicle: Klucel (hydroxypropylcellulose) (HPC)): 171 % of control
T/C (dose: 8.0 mg/kg/injection, schedule: Q01DX001 (ip), vehicle: suspension in saline): 166 % of control
T/C (dose: 8.0 mg/kg/injection, schedule: Q01DX001 (ip), vehicle: water): 200 % of control
T/C (dose: 8.0 mg/kg/injection, schedule: Q01DX005 (ip), vehicle: saline + alcohol): 254 % of control
T/C (dose: 8.0 mg/kg/injection, schedule: Q01DX009 (ip), vehicle: other): 264 % of control and 370 % of control
T/C (dose: 8.0 mg/kg/injection, schedule: Q01DX009 (ip), vehicle: saline with Tween-80): 297 % of control
T/C (dose: 9.0 mg/kg/injection, schedule: Q04DX003 (ip), vehicle: saline + alcohol): 180 % of control
T/C (dose: 10.0 mg/kg/injection, schedule: Q01DX005 (ip), vehicle: Klucel (hydroxypropylcellulose) (HPC)): 123 % of control
T/C (dose: 10.0 mg/kg/injection, schedule: Q01DX009 (ip), vehicle: Klucel (hydroxypropylcellulose) (HPC)): 98 % of control
T/C (dose: 10.0 mg/kg/injection, schedule: Q01DX009 (ip), vehicle: saline): 240 % of control
T/C (dose: 10.0 mg/kg/injection, schedule: Q04DX003 (ip), vehicle: saline + alcohol): 320 % of control
T/C (dose: 10.0 mg/kg/injection, schedule: Q04DX003 (iv), vehicle: saline + alcohol): 265 % of control
T/C (dose: 10.8 mg/kg/injection, schedule: Q04DX002 (ip), vehicle: saline + alcohol): 200 % of control and 206 % of control

Source: PubChem BioAssay AID330 (DTP/NCI, 2004)
